Experimental findings from patent US20230265116A1, “DEGRADATION OF (EGFR) BY CONJUGATION OF EGFR INHIBITORS WITH E3 LIGASE LIGAND AND METHODS OF USE” (BEIGENE, LTD., priority 2020, published 2023) are described below.

What is called Dmax is the greatest extent of degradation seen. A word on the DC50: it is the concentration at which degradation of the target reaches its halfway point.

Experiment [1] deals with T1, EGFR L858R/T790M/C797S (BaF3-LTC cells) (Homo sapiens, UniProt P00533, C797S/L858R/T790M).
T1 construct: expressed in transfected cells; host or cells: BaF3
T1 sequence (P00533 25-1210 T790M/C797S/L858R): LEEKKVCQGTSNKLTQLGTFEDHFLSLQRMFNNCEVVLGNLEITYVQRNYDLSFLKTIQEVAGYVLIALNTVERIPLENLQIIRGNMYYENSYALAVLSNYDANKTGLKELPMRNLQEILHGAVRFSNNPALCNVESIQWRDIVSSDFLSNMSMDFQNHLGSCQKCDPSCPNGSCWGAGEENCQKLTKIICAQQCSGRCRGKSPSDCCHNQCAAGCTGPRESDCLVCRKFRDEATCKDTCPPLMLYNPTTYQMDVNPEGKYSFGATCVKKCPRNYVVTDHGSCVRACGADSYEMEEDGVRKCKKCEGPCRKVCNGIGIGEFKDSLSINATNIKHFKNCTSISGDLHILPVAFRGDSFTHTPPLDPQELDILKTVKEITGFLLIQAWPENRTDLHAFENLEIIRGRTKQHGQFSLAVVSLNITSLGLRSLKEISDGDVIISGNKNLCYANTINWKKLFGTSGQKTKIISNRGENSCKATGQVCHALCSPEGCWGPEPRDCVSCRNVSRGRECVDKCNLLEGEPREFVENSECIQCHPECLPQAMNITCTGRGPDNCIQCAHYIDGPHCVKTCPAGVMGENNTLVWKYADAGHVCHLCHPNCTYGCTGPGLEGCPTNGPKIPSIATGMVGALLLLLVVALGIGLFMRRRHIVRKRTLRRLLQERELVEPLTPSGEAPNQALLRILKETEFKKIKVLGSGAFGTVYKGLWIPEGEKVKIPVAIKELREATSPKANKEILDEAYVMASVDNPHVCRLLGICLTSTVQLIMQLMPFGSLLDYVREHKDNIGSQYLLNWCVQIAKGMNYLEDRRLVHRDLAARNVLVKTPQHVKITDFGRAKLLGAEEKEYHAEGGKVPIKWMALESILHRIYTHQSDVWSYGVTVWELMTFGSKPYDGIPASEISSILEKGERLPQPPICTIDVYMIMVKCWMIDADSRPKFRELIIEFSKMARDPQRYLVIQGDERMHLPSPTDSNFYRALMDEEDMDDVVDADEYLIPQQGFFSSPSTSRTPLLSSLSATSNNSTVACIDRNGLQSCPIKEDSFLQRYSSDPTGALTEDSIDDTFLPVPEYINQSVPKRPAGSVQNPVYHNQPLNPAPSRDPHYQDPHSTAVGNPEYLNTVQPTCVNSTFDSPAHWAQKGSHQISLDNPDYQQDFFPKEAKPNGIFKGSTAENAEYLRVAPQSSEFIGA
As to the kind of experiment: EGFR degradation HTRF assay, BaF3-LTC cells. It counts as cell-based. The settings on record: BaF3-LTC, 16h treatment; for Dmax: maximum percentage of degradation, read-out: LTC Dmax (%); for DC50: read-out: LTC DC50. In outline:
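EGFR remaining after a 16 h, 37 °C exposure (8 doses, 5-fold steps from 10 uM final, 0.2% DMSO) was quantified by HTRF antibodies in cell lysate. Percent inhibition relative to DMSO control was fitted by four-parameter logistic to give DC50; Dmax denotes maximal degradation.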
In general terms: TR-FRET usually uses a lanthanide donor and a delayed reading to cut background.

Experiment [2] deals with EGFR Del19/T790M/C797S (BaF3-DTC cells). As to the kind of experiment: EGFR degradation HTRF assay, BaF3-DTC cells. Particulars: 16h treatment; for DTC Dmax (%): maximum percentage of degradation; for DC50: read-out: DTC DC50. The experiment is classed as cell-based. The procedure, abridged: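 BaF3 (WT, Del19/T790M/C797S) and HCC827 cells exposed 16 h at 37 °C, 5% CO2 to compounds in 0.2% DMSO medium, 8 doses from 10 uM top, 5-fold steps. Lysates read by HTRF (665/620 nm); degradation % vs DMSO control, DC50 from four-parameter fit, Dmax as maximal degradation.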

For `CCc1cc(Nc2ncc(Br)c(Nc3ccc4nccnc4c3P(C)(C)=O)n2)c(OC)cc1N1CCC(N2CCN(C(=O)[C@H]3CCN(c4ccc5c(c4)CN(C4CCC(=O)NC4=O)C5=O)C3)CC2)CC1` (stereo partly drawn) [Example 240, 3-(5-((S)-3-(4-(1-(4-((5-bromo-4-((5-(dimethylphosphoryl)quinoxalin-6-yl)amino)pyrimidin-2-yl)amino)-2-ethyl-5-methoxyphenyl)piperidin-4-yl)piperazine-1-carbonyl)pyrrolidin-1-yl)-1-oxoisoindolin-2-yl)piperidine-2,6-dione], in experiment [1], the Dmax was 87.7% and the DC50 is 5.95 nM. Further, in experiment [2], the “DTC Dmax (%)” value was 89.2% and the half-maximal degradation concentration (DC50) came to 3.83 nM.
On the same counts, the results for `CCc1cc(Nc2ncc(Br)c(Nc3ccc4nccnc4c3P(C)(C)=O)n2)c(OC)cc1N1CCC(N2CCN(C(=O)[C@@H]3CCN(c4ccc5c(c4)CN(C4CCC(=O)NC4=O)C5=O)C3)CC2)CC1` (stereo partly drawn) [Example 241, 3-(5-((R)-3-(4-(1-(4-((5-bromo-4-((5-(dimethylphosphoryl)quinoxalin-6-yl)amino)pyrimidin-2-yl)amino)-2-ethyl-5-methoxyphenyl)piperidin-4-yl)piperazine-1-carbonyl)pyrrolidin-1-yl)-1-oxoisoindolin-2-yl)piperidine-2,6-dione] are 87.6%, 4.6 nM, 89.74% and 3.26 nM.
On the same counts, the results for `CCc1cc(Nc2ncc(Br)c(Nc3ccc4nccnc4c3P(C)(C)=O)n2)c(OC)cc1N1CCC(N2CCN(CC3CCN(c4ccc5c(c4)CN(C4CCC(=O)NC4=O)C5=O)CC3)CC2)CC1` (centres unmarked) [Example 244, 3-(5-(4-((4-(1-(4-((5-bromo-4-((5-(dimethylphosphoryl)quinoxalin-6-yl)amino)pyrimidin-2-yl)amino)-2-ethyl-5-methoxyphenyl)piperidin-4-yl)piperazin-1-yl)methyl)piperidin-1-yl)-1-oxoisoindolin-2-yl)piperidine-2,6-dione] are 89.3%, 13 nM, 88.74% and 5.6 nM.
`CCc1cc(Nc2ncc(Br)c(Nc3ccc4nccnc4c3P(C)(C)=O)n2)c(OC)cc1N1CCC(N2CCN(C[C@H]3C[C@H](N(C)c4ccc(C5CCC(=O)NC5=O)cc4)C3)CC2)CC1` (some centres unmarked) [Example 245, 3-(4-(((1r,3r)-3-((4-(1-(4-((5-bromo-4-((5-(dimethylphosphoryl)quinoxalin-6-yl)amino)pyrimidin-2-yl)amino)-2-ethyl-5-methoxyphenyl)piperidin-4-yl)piperazin-1-yl)methyl)cyclobutyl)(methyl)amino)phenyl)piperidine-2,6-dione]: in experiment [1], the Dmax was determined as 81.4% and the 50% degradation concentration (DC50) came out at 30.1 nM. Moreover, in experiment [2], the “DTC Dmax (%)” value was found to be 87.52% and the DC50 was determined as 11.9 nM.
On the same counts, the results for `CCc1cc(Nc2ncc(Br)c(Nc3ccc4nccnc4c3P(C)(C)=O)n2)c(OC)cc1N1CCC(N2CCN(C(=O)C3CN(c4ccc5c(c4)CN(C4CCC(=O)NC4=O)C5=O)C3)CC2)CC1` (centres unmarked) [Example 246, 3-(5-(3-(4-(1-(4-((5-bromo-4-((5-(dimethylphosphoryl)quinoxalin-6-yl)amino)pyrimidin-2-yl)amino)-2-ethyl-5-methoxyphenyl)piperidin-4-yl)piperazine-1-carbonyl)azetidin-1-yl)-1-oxoisoindolin-2-yl)piperidine-2,6-dione] are 91%, 4.47 nM, 93.85% and 1.51 nM.
For `CCc1cc(Nc2ncc(Br)c(Nc3ccc4nccnc4c3P(C)(C)=O)n2)c(OC)cc1N1CCC(N2CCN(CCNc3cccc4c3CN(C3CCC(=O)NC3=O)C4=O)CC2)CC1` (centres unmarked) [Example 248, 3-(4-((2-(4-(1-(4-((5-bromo-4-((5-(dimethylphosphoryl)quinoxalin-6-yl)amino)pyrimidin-2-yl)amino)-2-ethyl-5-methoxyphenyl)piperidin-4-yl)piperazin-1-yl)ethyl)amino)-1-oxoisoindolin-2-yl)piperidine-2,6-dione], in experiment [1], the Dmax was 89.4% and the DC50 is 9.39 nM. Moreover, in experiment [2], the “DTC Dmax (%)” value amounted to 89.62% and the half-maximal degradation concentration (DC50) turned out to be 4.41 nM.
On the same counts, the results for `CCc1cc(Nc2ncc(Br)c(Nc3ccc4nccnc4c3P(C)(C)=O)n2)c(OC)cc1N1CCC(N2CCN(CCN(C)c3ccc4c(c3)C(=O)N(C3CCC(=O)NC3=O)C4)CC2)CC1` (centres unmarked) [Example 249, 3-(6-((2-(4-(1-(4-((5-bromo-4-((5-(dimethylphosphoryl)quinoxalin-6-yl)amino)pyrimidin-2-yl)amino)-2-ethyl-5-methoxyphenyl)piperidin-4-yl)piperazin-1-yl)ethyl)(methyl)amino)-1-oxoisoindolin-2-yl)piperidine-2,6-dione] are 86.7%, 28.6 nM, 90.4% and 3.01 nM.
In the case of `CCc1cc(Nc2ncc(Br)c(Nc3ccc4nccnc4c3P(C)(C)=O)n2)c(OC)cc1N1CCC(N2CCN(C3CN(c4ccc(C5CCC(=O)NC5=O)cc4)C3)CC2)CC1` (centres unmarked) [Example 250], in experiment [1], the Dmax is 73.8% and the DC50 was 24.8 nM. In experiment [2], the “DTC Dmax (%)” value is recorded as 75.19% and the 50% degradation concentration (DC50) turned out to be 11.1 nM.
On the same counts, the results for `CCc1cc(Nc2ncc(Br)c(Nc3ccc4nccnc4c3P(C)(C)=O)n2)c(OC)cc1N1CCC(N2CCN(CC3CN(c4ccc(C5CCC(=O)NC5=O)c(C#N)c4)C3)CC2)CC1` (centres unmarked) [Example 251, 5-(3-((4-(1-(4-((5-bromo-4-((5-(dimethylphosphoryl)quinoxalin-6-yl)amino)pyrimidin-2-yl)amino)-2-ethyl-5-methoxyphenyl)piperidin-4-yl)piperazin-1-yl)methyl)azetidin-1-yl)-2-(2,6-dioxopiperidin-3-yl)benzonitrile] are 87%, 2.93 nM, 82.01% and 7.72 nM.
For `CCc1cc(Nc2ncc(Br)c(Nc3ccc4nccnc4c3P(C)(C)=O)n2)c(OC)cc1N1CCC(N2CCN(CC3CN(c4ccc(C5CCC(=O)NC5=O)c(F)c4)C3)CC2)CC1` (centres unmarked) [Example 252, 3-(4-(3-((4-(1-(4-((5-bromo-4-((5-(dimethylphosphoryl)quinoxalin-6-yl)amino)pyrimidin-2-yl)amino)-2-ethyl-5-methoxyphenyl)piperidin-4-yl)piperazin-1-yl)methyl)azetidin-1-yl)-2-fluorophenyl)piperidine-2,6-dione], in experiment [1], the Dmax stood at 80.8% and the DC50 came to 34.8 nM. Besides, in experiment [2], the “DTC Dmax (%)” value is 85.86% and the DC50 was 17.1 nM.
For `CCc1cc(Nc2ncc(Br)c(Nc3ccc4nccnc4c3P(C)(C)=O)n2)c(OC)cc1N1CCC(N2CCN(CC3CN(c4cc(F)c(C5CCC(=O)NC5=O)c(F)c4)C3)CC2)CC1` (centres unmarked) [Example 253, 3-(4-(3-((4-(1-(4-((5-bromo-4-((5-(dimethylphosphoryl)quinoxalin-6-yl)amino)pyrimidin-2-yl)amino)-2-ethyl-5-methoxyphenyl)piperidin-4-yl)piperazin-1-yl)methyl)azetidin-1-yl)-2,6-difluorophenyl)piperidine-2,6-dione], in experiment [1], the Dmax came out at 86.3% and the DC50 stood at 19.8 nM. Besides, in experiment [2], the “DTC Dmax (%)” value is listed as 94.79% and the DC50 worked out at 7.09 nM.
